In patent US20230382889A1 (Volastra Therapeutics, Inc., priority 2022, published 2023):

How the values were obtained:
hKIF18A (1-374) = hKIF18A (1-374) (Homo sapiens (Human), UniProt Q8NI77); experiment: Inhibition of KIF18A microtubule-dependent ATPase activity (ADP-Glo); assay type: biochemical; conditions: 4 nM hKIF18A (1-374)
Procedure, shortened: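 Reaction was started with pre-formed microtubules and ATP (0.2 mg/mL and 2.0 mM in the added mix) and run 60 min at 28 °C. ADP was read by ADP-Glo luminescence, and IC50 came from a four-parameter fit of % inhibition.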

[1] = molecular target: KIF18a-microtubule complex (Homo sapiens (Human), UniProt Q8NI77); experiment: Binding kinetics to KIF18a-microtubule complex (global progress curve analysis)
KIF18a-microtubule complex, sequence (Q8NI77 1-374, one chain of several): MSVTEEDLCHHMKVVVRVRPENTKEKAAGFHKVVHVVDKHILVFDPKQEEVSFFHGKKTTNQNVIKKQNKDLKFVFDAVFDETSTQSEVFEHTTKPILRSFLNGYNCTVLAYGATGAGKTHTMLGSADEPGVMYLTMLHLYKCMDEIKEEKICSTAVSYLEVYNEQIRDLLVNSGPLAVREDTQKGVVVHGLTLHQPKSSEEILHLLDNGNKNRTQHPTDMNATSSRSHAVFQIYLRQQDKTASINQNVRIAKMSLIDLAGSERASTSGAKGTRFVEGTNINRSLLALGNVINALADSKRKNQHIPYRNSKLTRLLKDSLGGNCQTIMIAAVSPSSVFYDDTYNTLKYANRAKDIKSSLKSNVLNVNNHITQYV
Method: Compound binding kinetics parameters (kon and koff) were determined by the method of global progress curve analysis (GPCA). […] ADP product levels were determined by the Promega® ADP-Glo assay.

HCC15 cells = experiment: Cell viability of KIF18a-sensitive cell lines, HCC15 (Cell Titre-Glo, 7 days); assay type: cell-based; conditions: 168 h; HCC15, 7 days; read-out: HCC15 IC50
JIMT-1 cells = experiment: Cell viability of KIF18a-sensitive cell lines, JIMT-1 (Cell Titre-Glo, 7 days); assay type: cell-based; conditions: Homo sapiens, 168 h; JIMT-1, 7 days; read-out: JIMT-1 IC50
NIH:OVCAR-3 cells = experiment: Cell viability of KIF18a-sensitive cell lines, NIH:OVCAR-3 (Cell Titre-Glo, 7 days); assay type: cell-based; conditions: Homo sapiens, OVCAR-3, 168 h; NIH:OVCAR3, 7 days; read-out: NIH:OVCAR3 IC50
OVCAR-3 tumor cells = experiment: In vivo activity, OVCAR-3 xenograft tumor growth inhibition; conditions: OVCAR3 model, Balb/C nude mice, FIG. 1
Method: (§1) OVCAR-3 (ATCC) tumor cells were maintained in vitro in RPMI-1640 medium supplemented with 20% fetal bovine serum, 0.01 mg/mL bovine insulin and 1% Anti-Anti at 37° C. in an atmosphere of 5%/CO2 in air. HCC15 (DSMZ) tumor cells were maintained in vitro in RPMI 1640 medium supplemented with 10% fetal bovine serum and 1% Anti-Anti at 37° C. in an atmosphere of 5% CO2 in air.
(§2) The tumor cells were sub-cultured twice weekly. The cells growing in an exponential growth phase were harvested and counted for tumor inoculation.
(§3) Tumor cells (10×106) in 0.2 mL of PBS mixed with Matrigel (50:50) were inoculated subcutaneously on the right flank of each mouse. When the average tumor volume reached 110-175 mm^3, animals were randomized into groups of 10 and treatment started. OVCAR-3 cells were implanted in Balb/C nude mice, and HCC15 cell were implanted in SCID Beige mice.
(§4) Compounds were dosed once or twice a day (12 h) orally. Tumor Growth Inhibition (TGI) was calculated using the formula: TGI (%)=[1−(TN−T0)/(VN−V0)]×100; TN is the average tumor volume of a treatment group at the indicated timepoint, T0 is the average tumor volume of the treatment group on treatment day 0, VN is the average tumor volume of the vehicle control group at the indicated timepoint, and V0 is the average tumor volume of the vehicle group on treatment day 0. P value was calculated based on tumor size by One-Way ANOVA with GraphPad Prism 9.4.0 compared with the vehicle group, respectively. **** indicates p<0.0001.
(§5) The tumor volume of vehicle- and compound-treated mice as a function of time after start of treatment and the results of treatments with selected compounds on SCID Beige mice or nude mice implanted with HCC15 or OVCAR-3 are shown in FIGS. 1 and 2. The TGI calculated for treatments with selected compounds are shown in Table 11.

HCC15 tumor cells = experiment: In vivo activity, HCC15 xenograft tumor growth inhibition; conditions: HCC15 model, SCID Beige mice, FIG. 2
Method: as §1, §2, §3, §4, §5

hKIF18A (1-374), sequence (Q8NI77 1-374): as the sequence (Q8NI77 1-374, one chain of several) above

For `Cc1cc(-c2cn(-c3ccc(NS(=O)(=O)CCO)cc3N3CCC4(CC3)CC4)nn2)nc(N2CCC(F)(F)CC2)n1` [Compound 47, N-(4-(4-(2-(4,4-difluoropiperidin-1-yl)-6-methylpyrimidin-4-yl)-1H-1,2,3-triazol-1-yl)-3-(6-azaspiro[2.5]octan-6-yl)phenyl)-2-hydroxyethane-1-sulfonamide], the IC50 (hKIF18A (1-374)) was 19 nM, the “kon (on-rate from binding kinetics assay)” value ([1]; KIF18A 0.25 nM, up to 24 hr) was 14400 M⁻¹ s⁻¹ and the koff ([1]; KIF18A 0.25 nM, up to 24 hr, read-out: koff (off-rate from binding kinetics assay) (converted)) was 2.78e-06 s⁻¹. The Ki ([1]; koff/kon, read-out: KI (determined from binding kinetic assay koff/kon)) was 0.2 nM, the “disc. t1/2 (dissociation half-life ln(2)/koff)” value ([1]; ln(2)/koff) was 68 h and the IC50 (HCC15 cells) was 9.2 nM. The IC50 (JIMT-1 cells) was 16 nM, the IC50 (NIH:OVCAR-3 cells) was 13 nM and the TGI (OVCAR-3 tumor cells; 3 mg/kg QD PO) was 44 ± 11%. For the same molecule, the TGI (OVCAR-3 tumor cells; 10 mg/kg QD PO) was 119 ± 1%, the TGI (OVCAR-3 tumor cells; 30 mg/kg QD PO) was 120 ± 1% and the TGI (HCC15 tumor cells; 3 mg/kg QD PO) was 64 ± 7%. For the same molecule, the TGI (HCC15 tumor cells; 10 mg/kg QD PO) was 83 ± 4% and the TGI (HCC15 tumor cells; 30 mg/kg QD PO) was 87 ± 4%.
